The nature of data set [1]: Pharmacokinetics of AE-PM components and their phase II metabolites in rat plasma after single oral administration (UHPLC-MS/MS, with and without sulfatase hydrolysis). The following applies: for AUC(0-inf) / CL/F / Cmax / MRT inf / Tmax / Vd/F / half-life: rat, po; for CL/F: CLz/F; for MRT inf: MRT (0-∞); for Vd/F: Vz/F; for half-life: t1/2z; for Conversion into phase II metabolites: rats.
Method: (§1) To explore the pharmacokinetic properties of PM following intragastric administration in rats, a rapid and sensitive method involving the use of UHPLC-MS/MS (Agilent 6460 series, Agilent Technologies, Santa Clara, CA, United States) was developed and validated for the simultaneous quantification of nine active components in rat plasma. The quantification was conducted in ESI negative ionization mode, and mass spectrometry conditions were set up as follows: capillary voltage of 3500 V; gas flow at 12 L/min; nebulizer of 40 psi; the gas temperature of 350°C; and delta EMV (−) of 400. A 10 µl extraction sample was injected into the column (Agilent SB-C18 column, 2.1 mm × 50 mm, 1.8 mm) and eluted at 0.4 ml/min with a gradient elution of water (with 0.1% v/v formic acid) (A) and acetonitrile (B) (0–1.5 min, 20–30% B; 1.5–3.5 min, 30–50% B; 3.five to four min, 50–55%B; 4–6.5 min, 55–85% B; 6.5–6.6 min, 85–20% B and re-equilibration for 3 min).
(§2) A 50 µl aliquot of blood plasma sample was placed in a centrifuge tube with 50 µl of puerarin (internal standard, IS) solution (1,000 ng/ml), followed by 150 µl methanol, which was mixed for 5 min. Then, the mixture was centrifuged for 10 min at 15,000 rpm (4°C), the supernatant was transferred to a clean centrifuge tube and dried with nitrogen gas at room temperature. The residue was resuspended in 100 µl of methanol, then centrifuged at 15,000 rpm (4°C, 10 min), and 10 µl of the supernatant was analyzed by UHPLC-MS/MS.
(§3) Additional plasma samples (50 µl) were enzymatically hydrolyzed with 50 µl of enzyme solution (65.86 mg of sulfatase, dissolved in 2 ml of sodium acetate buffer, pH 5.0) for phase II metabolite quantification, in accordance with our previous study ([Ding et al., 2012]; [Yi et al., 2018]). After being vortex mixed for 5 min, the mixture was incubated at 37°C for 30 min and returned to room temperature. Subsequently, the samples were processed as described above.
(§4) The remaining 21 rats of the three groups were treated with a single oral dose of AE-PM (50.4 g PM/kg). […] Blood was collected in heparinized tubes at 5, 15, 30, 45, 60, 120, 240, 360, 480, 720, 1,440, 2,880, and 4,320 min after administration. The blood samples were centrifuged at 5,000 rpm (4°C) for 7 min, and the supernatant plasma was harvested.
(§5) All data were presented as mean ± standard deviation (SD). A one-way analysis of variance (ANOVA) was used to compare the data between three groups. The differences were considered to be statistically significant when p < 0.05 and highly significant when the p-value was <0.01 or p < 0.001. Spearman rank correlation coefficient, calculated by bivariate correlation analysis was used to evaluate the correlation between AUC values and expression levels of metabolic enzyme and transporters. All statistical analyses were performed with the SPSS Statistics system (SPSS vision 21.0). Pharmacokinetic data analyses were performed using DAS 2.1.1 software (Mathematical Pharmacology Professional Committee of China, Shanghai, China).

Data set [2] is described as follows: in vivo. Particulars: rat, po, 50 g/kg; for MRT inf: MRT (0-∞); for MRT inf / Tmax: oral AE-PM 50 g/kg, plasma, n = 6.
Method: as §1, §2, §3, §4, §5
Setting [3] is: plasma, 50 g/kg, ANIT group rats, oral AE-PM 50 g/kg, plasma, n = 6.
Where [4] appears, read: plasma, 50 g/kg, CCl4 group rats, oral AE-PM 50 g/kg, plasma, n = 6.
[5] abbreviates: plasma, 50 g/kg, Normal group rats, oral AE-PM 50 g/kg, plasma, n = 6.

Structures are written as SMILES. Bounds are passed on as bounds.

`O=C1c2cccc(O)c2C(=O)c2c(O)cc(CO)cc21` [Aloe-emodin, aloe-emodin]: the t1/2z in data set [1] (CCl4 group rats, oral AE-PM 50 g/kg, plasma, n = 6) came to 3.448 ± 0.177 h. Moreover, in data set [1] (setting [3]), the AUC(0-inf) turned out to be 41700 ng·h/mL, the CL/F is 7.98 mL/min/kg, the Cmax came to 1570 ng/mL and the MRT inf amounted to 198 ± 3.17 h. In addition, in data set [1] (setting [3]), the Tmax is 15 ± 1.92 min, the Vd/F came out at 96.7 ± 8.35 L/kg and the half-life is 8390 ± 498 min. In data set [1] (setting [4]), the AUC(0-inf) is 6620 ng·h/mL, the CL/F was 50.4 mL/min/kg, the Cmax came to 2600 ng/mL and the MRT inf came out at 6.47 ± 0.422 h. Besides, in data set [1] (setting [4]), the Tmax turned out to be 15 ± 3.12 min and the Vd/F stood at 15 ± 1.2 L/kg. Besides, in data set [1] (setting [5]), the AUC(0-inf) turned out to be 3560 ng·h/mL, the CL/F was 93.6 mL/min/kg, the Cmax was found to be 1270 ng/mL and the MRT inf turned out to be 14 ± 1.42 h. Besides, in data set [1] (setting [5]), the time of peak concentration (Tmax) was found to be 10 ± 3.06 min, the Vd/F is 28.7 ± 1.55 L/kg and the half-life was 213 ± 11.1 min. Also, in data set [1] (plasma, 50.4 g PM/kg, different groups (normal, ANIT, CCl4), oral AE-PM), the Tmax was under 30 min.

As to `Oc1cc(O)c2c(c1)O[C@H](c1ccc(O)c(O)c1)[C@@H](O)C2` [Catechin, catechin], in data set [1] (setting [3]), the AUC(0-inf) amounted to 11600 ng·h/mL, the CL/F is 28.8 mL/min/kg, the Cmax came out at 84.5 ± 8.85 ng/mL and the MRT inf is 253 ± 3.75 h. For the same compound, in data set [1] (setting [3]), the Tmax was 60 ± 44.5 min, the Vd/F was 442 ± 16.9 L/kg and the half-life was 10640 ± 65.6 min. In data set [1] (setting [4]), the AUC(0-inf) came out at 1500 ng·h/mL, the CL/F is 222 mL/min/kg, the Cmax was determined as 453 ± 8.94 ng/mL and the MRT inf came to 11.2 ± 1.23 h. In data set [1] (setting [4]), the Tmax is 30 ± 2.45 min, the Vd/F amounted to 72.2 ± 12.6 L/kg and the half-life was 225 ± 49 min. Further, in data set [1] (setting [5]), the AUC(0-inf) was 12600 ng·h/mL, the CL/F was 26.4 mL/min/kg, the Cmax is 251 ± 11.8 ng/mL and the MRT inf was 146 ± 11.3 h. Further, in data set [1] (setting [5]), the Tmax was 15 ± 1.4 min, the Vd/F is 237 ± 18.3 L/kg and the half-life was 6220 ± 897 min. The “Conversion into phase II metabolites” value in data set [1] (oral AE-PM, plasma) is reported as “partially converted”.

Regarding `Cc1cc(O[C@@H]2O[C@H](CO)[C@@H](O)[C@H](O)[C@H]2O)c2c(c1)C(=O)c1cc(O)cc(O)c1C2=O` [E-glu, emodin-8-O-β-D-glucoside], in data set [1] (ANIT model rats, oral AE-PM), the “Decrease of AUC (0-∞) compared with the normal group” value is listed as 8.25% and the “Decrease of Cmax compared with the normal group” value is reported as 22.98%. In data set [1] (CCl4 model rats, oral AE-PM), the “Increase of AUC (0-∞) compared with the normal group” value (from here on “Increase of AUC (0-∞)”) turned out to be 655.90% and the “Increase of Cmax compared with the normal group” value (“Increase of Cmax” below) worked out at 620.15%. Moreover, in data set [1] (setting [3]), the AUC(0-inf) was found to be 1720 ± 170 ng·h/mL, the CL/F is 193 mL/min/kg, the Cmax turned out to be 633 ± 50 ng/mL and the MRT inf came out at 2.81 ± 0.872 h. For the same compound, in data set [1] (setting [3]), the Tmax came out at 60 ± 14.9 min, the Vd/F was found to be 78.3 ± 4.4 L/kg and the half-life was 281 ± 66.1 min. For the same compound, in data set [1] (setting [4]), the AUC(0-inf) was found to be 14200 ng·h/mL, the CL/F was 23.5 mL/min/kg, the Cmax stood at 5920 ng/mL and the MRT inf stood at 2.44 ± 1.17 h. In data set [1] (setting [4]), the Tmax was 60 ± 17.3 min, the Vd/F stood at 8.13 ± 1.75 L/kg and the half-life was 240 ± 83.9 min. For the same compound, in data set [1] (setting [5]), the AUC(0-inf) is 1880 ± 538 ng·h/mL, the CL/F was 177 mL/min/kg, the Cmax came to 821 ± 85 ng/mL and the mean residence time MRT inf amounted to 3.88 ± 1.52 h. Moreover, in data set [1] (setting [5]), the Tmax worked out at 15 ± 1.81 min, the Vd/F came out at 60.2 ± 9.45 L/kg and the half-life was 235 ± 13.1 min.

As to `O=C(O)c1cc(O)c(O)c(O)c1` [Gallic acid, gallic acid], the MRT inf in data set [2] (ANIT group rats) is 55.7 ± 4.22 h; in data set [2] (CCl4 group rats) it was 3.06 ± 0.12 h; in data set [2] (Normal group rats), 12.8 ± 1.02 h. Further, the Tmax in data set [2] (ANIT group rats) stood at 45 ± 1.39 min; in data set [2] (CCl4 group rats), 15 ± 3.85 min; in data set [2] (Normal group rats), 15 ± 4.37 min. This compound also yielded a Vd/F in data set [2] (Vz/F) of 205 ± 2.2 L/kg.

As to `COc1cc(O)c2c(c1)C(=O)c1cc(C)cc(O[C@@H]3O[C@H](CO)[C@@H](O)[C@H](O)[C@H]3O)c1C2=O` [P-glu, physcion-8-O-β-D-glucoside], in data set [1] (setting [3]), the AUC(0-inf) was 7050 ng·h/mL, the apparent clearance (CL/F) is 47.3 mL/min/kg, the Cmax came to 223 ± 13.2 ng/mL and the MRT inf is 18.8 ± 3.36 h. Besides, in data set [1] (setting [3]), the Tmax was 60 ± 13.9 min, the Vd/F was found to be 13.2 ± 1.86 L/kg and the half-life was 193 ± 28.4 min. Also, in data set [1] (setting [4]), the AUC(0-inf) was 1450 ng·h/mL, the CL/F is 230 mL/min/kg, the Cmax was determined as 211 ± 3.04 ng/mL and the MRT inf turned out to be 7.48 ± 1.42 h. For the same compound, in data set [1] (setting [4]), the Tmax came to 15 ± 3.97 min, the Vd/F came to 81.3 ± 5.01 L/kg and the half-life was 245 ± 27.2 min. In data set [1] (setting [5]), the AUC(0-inf) worked out at 2270 ng·h/mL, the CL/F was 147 mL/min/kg, the Cmax came out at 148 ± 8.95 ng/mL and the MRT inf is 15.9 ± 2.36 h. Further, in data set [1] (setting [5]), the Tmax came out at 45 ± 2.94 min, the Vd/F came to 143 ± 11.1 L/kg and the half-life is 675 ± 111 min.

In the case of `COc1cc(O)c2c(c1)C(=O)c1cc(C)cc(O)c1C2=O` [Physcion, physcion], in data set [1] (ANIT model rats, oral AE-PM), the “Decrease of AUC (0-∞) compared with the normal group” value was 49.77% and the “Decrease of Cmax compared with the normal group” value is recorded as 29.48%. For the same compound, in data set [1] (CCl4 model rats, oral AE-PM), the “Increase of AUC (0-∞)” value is 29.24% and the “Increase of Cmax” value came out at 173.72%. Besides, in data set [1] (oral AE-PM, sulfatase hydrolysis), the “Levels of glucuronidation and sulfation conjugates in plasma” value is “too low to allow pharmacokinetic analysis”. Besides, in data set [1] (setting [3]), the AUC(0-inf) turned out to be 14000 ng·h/mL, the CL/F was 23.9 mL/min/kg, the Cmax was 1510 ng/mL and the MRT inf came to 37.6 ± 2.27 h. In addition, in data set [1] (setting [3]), the Tmax is 45 ± 1.43 min, the Vd/F turned out to be 59.8 ± 3.41 L/kg and the half-life is 1740 ± 90.1 min. Moreover, in data set [1] (setting [4]), the AUC(0-inf) came to 36000 ng·h/mL, the CL/F is 9.27 mL/min/kg, the maximum concentration (Cmax) was 5840 ng/mL and the MRT inf turned out to be 10 ± 1.14 h. Also, in data set [1] (setting [4]), the Tmax was determined as 60 ± 4.05 min, the Vd/F worked out at 7.05 ± 1.11 L/kg and the half-life is 527 ± 96.2 min. For the same compound, in data set [1] (setting [5]), the AUC(0-inf) was found to be 27800 ng·h/mL, the CL/F is 12 mL/min/kg, the Cmax came out at 2140 ng/mL and the MRT inf is 26.7 ± 1.52 h. Also, in data set [1] (setting [5]), the Tmax is 30 ± 5.64 min, the Vd/F amounted to 17.6 ± 2.41 L/kg and the half-life was 1020 ± 112 min.

With `OC[C@H]1O[C@@H](Oc2c(O)cc(O)cc2/C=C/c2ccc(O)cc2)[C@H](O)[C@@H](O)[C@@H]1O` [TSG, 2,3,5,4'-tetrahydroxystilbene-2-O-β-D-glucoside], in data set [1] (ANIT model rats, oral AE-PM), the “Increase of AUC (0-∞)” value is given as 2,548.17% and the “Increase of Cmax” value was determined as 560.12%. For the same compound, in data set [1] (CCl4 model rats, oral AE-PM), the “Increase of AUC (0-∞)” value is 802.14% and the “Increase of Cmax” value worked out at 236.59%. In addition, in data set [1] (setting [3]), the AUC(0-inf) came out at 341000 ng·h/mL, the CL/F was 0.983 mL/min/kg, the Cmax came to 99300 ng/mL and the mean residence time MRT inf worked out at 6.03 ± 1.93 h. In data set [1] (setting [3]), the Tmax came out at 30 ± 1.67 min, the Vd/F is 0.221 ± 0.0206 L/kg and the half-life was 156 ± 36.7 min. Moreover, in data set [1] (setting [4]), the AUC(0-inf) is 116000 ng·h/mL, the CL/F is 2.87 mL/min/kg, the Cmax is 50600 ng/mL and the MRT inf stood at 3.4 ± 1.04 h. Besides, in data set [1] (setting [4]), the Tmax was determined as 45 ± 8.16 min, the Vd/F is 0.698 ± 0.073 L/kg and the half-life is 168 ± 52.7 min. Moreover, in data set [1] (setting [5]), the AUC(0-inf) was found to be 12900 ng·h/mL, the CL/F is 25.9 mL/min/kg, the Cmax was determined as 15000 ng/mL and the MRT inf was 4.54 ± 1.23 h. Moreover, in data set [1] (setting [5]), the Tmax stood at 15 ± 1.76 min, the Vd/F came out at 4.37 ± 0.711 L/kg and the half-life is 117 ± 48.4 min. Further, in data set [1] (oral AE-PM, plasma), the “Conversion into phase II metabolites” value is listed as “partially converted”.

Values taken from article PMC8245786, “Comparative Studies on Multi-Component Pharmacokinetics of Polygonum multiflorum Thunb Extract After Oral Administration in Different Rat Models” (Frontiers in Pharmacology, 2021).
